Results published in ChEMBL document CHEMBL4680227, “Design and synthesis of selective degraders of EGFR mutant” (Eur J Med Chem, 2020).
The source made the active and inactive calls. No cut-off for these calls is given here.

Columns and labels:
[1] = target: E3 ubiquitin-protein ligase Mdm2/Epidermal growth factor receptor (Homo sapiens, UniProt Q00987+P00533); experiment: Protac activity at MDM2/EGFR in human A431 cells assessed as EGFR degradation by Western blot analysis; assay type: cell-based; conditions: a-431
[2] = target: Baculoviral IAP repeat-containing protein 2/Epidermal growth factor receptor (Homo sapiens, UniProt P00533+Q13490); experiment: Protac activity at cIAP1/EGFR in human A431 cells assessed as EGFR degradation by Western blot analysis; assay type: cell-based; conditions: a-431
[3] = target: E3 ubiquitin-protein ligase Mdm2/Epidermal growth factor receptor (Homo sapiens, UniProt Q00987+P00533, T790M/L858M); experiment: (§1) Protac activity at MDM2/EGFR L858R/T790M mutant in human NCI-H1975 cells assessed as EGFR degradation by Western blot analysis; assay type: cell-based
[4] = target: T1, von Hippel-Lindau disease tumor suppressor/Epidermal growth factor receptor (Homo sapiens, UniProt P00533+P40337); experiment: Protac activity at VHL/EGFR in human A431 cells assessed as EGFR degradation by Western blot analysis; assay type: cell-based; conditions: a-431
[5] = system: von Hippel-Lindau disease tumor suppressor/Epidermal growth factor receptor (Homo sapiens), P00533+P40337 [L858R,T790M]; experiment: Protac activity at VHL/EGFR L858R/T790M mutant in human NCI-H1975 cells assessed as EGFR degradation measured after 16 hrs by Western blot analysis; assay type: cell-based
[6] = system: von Hippel-Lindau disease tumor suppressor/Epidermal growth factor receptor (Homo sapiens), P00533+P40337 [L858R,T790M]; experiment: Protac activity at VHL/EGFR L858R/T790M mutant in human NCI-H1975 cells assessed as induction of EGFR degradation at 200 nM measured after 6 hrs by Western blot analysis relative to control; assay type: cell-based
NCI-H1975 = experiment: Antiproliferative activity against human NCI-H1975 cells measured after 72 hrs by CCK8 assay; assay type: functional, cell-based; conditions: NCI-H1975, 72 h
[7] = system: von Hippel-Lindau disease tumor suppressor/Epidermal growth factor receptor (Homo sapiens), P00533+P40337 [L858R,T790M]; experiment: Protac activity at VHL/EGFR L858R/T790M mutant in human NCI-H1975 cells assessed as reduction in AKT phosphorylation measured after 16 hrs by Western blot analysis; assay type: cell-based
[8] = system: von Hippel-Lindau disease tumor suppressor/Epidermal growth factor receptor (Homo sapiens), P00533+P40337 [L858R,T790M]; experiment: Protac activity at VHL/EGFR L858R/T790M mutant in human NCI-H1975 cells assessed as reduction in ERK phosphorylation at >2000 nM measured after 16 hrs by Western blot analysis; assay type: cell-based; conditions: dose nM >2000, time 16.0 hrs
[9] = system: von Hippel-Lindau disease tumor suppressor/Epidermal growth factor receptor (Homo sapiens), P00533+P40337 [L858R,T790M]; experiment: Protac activity at VHL/EGFR L858R/T790M mutant in human NCI-H1975 cells assessed as induction of EGFR degradation at 200 nM measured after 12 hrs by Western blot analysis relative to control; assay type: cell-based
[10] = Effect on AKT level in human NCI-H1975 cells up to 10000 nM treated 8 hrs post serum starvation measured after 16 hrs by Western blot analysis; assay type: ADME, cell-based; conditions: nci-h1975, 16 h
[11] = system: von Hippel-Lindau disease tumor suppressor/Epidermal growth factor receptor (Homo sapiens), P00533+P40337 [L858R,T790M]; experiment: Protac activity at VHL/EGFR L858R/T790M mutant in human NCI-H1975 cells assessed as reduction in ERK phosphorylation measured after 16 hrs by Western blot analysis; assay type: cell-based
[12] = system: von Hippel-Lindau disease tumor suppressor/Epidermal growth factor receptor (Homo sapiens), P00533+P40337 [L858R,T790M]; experiment: Protac activity at VHL/EGFR L858R/T790M mutant in human NCI-H1975 cells assessed as induction of EGFR degradation at 100 nM in presence of EGFR L858R/T790M mutant ligand XTF-262 by Western blot analysis; assay type: cell-based
[13] = system: von Hippel-Lindau disease tumor suppressor/Epidermal growth factor receptor (Homo sapiens), P00533+P40337 [L858R,T790M]; experiment: Protac activity at VHL/EGFR L858R/T790M mutant in human NCI-H1975 cells assessed as EGFR degradation at >2000 nM measured after 16 hrs by Western blot analysis; assay type: cell-based; conditions: dose nM >2000, time 16.0 hrs
[14] = target: von Hippel-Lindau disease tumor suppressor/Epidermal growth factor receptor (Homo sapiens, UniProt P00533+P40337, T790M/L858R); experiment: (§2) Protac activity at VHL/EGFR L858R/T790M mutant in human NCI-H1975 cells assessed as EGFR degradation by Western blot analysis; assay type: cell-based
[15] = system: von Hippel-Lindau disease tumor suppressor/Epidermal growth factor receptor (Homo sapiens), P00533+P40337 [L858R,T790M]; experiment: Protac activity at VHL/EGFR L858R/T790M mutant in human NCI-H1975 cells assessed as induction of EGFR degradation at 200 nM measured after 24 hrs by Western blot analysis; assay type: cell-based
[16] = system: von Hippel-Lindau disease tumor suppressor/Epidermal growth factor receptor (Homo sapiens), P00533+P40337 [L858R,T790M]; experiment: Protac activity at VHL/EGFR L858R/T790M mutant in human NCI-H1975 cells assessed as reduction in AKT phosphorylation at >2000 nM measured after 16 hrs by Western blot analysis; assay type: cell-based; conditions: dose nM >2000, time 16.0 hrs
[17] = target: T1, von Hippel-Lindau disease tumor suppressor/Epidermal growth factor receptor; experiment: Protac activity at VHL/EGFR in human A431 cells assessed as EGFR degradation up to 10000 nM measured after 16 hrs by Western blot analysis; assay type: cell-based; conditions: A-431, dose nM <=10000, time 16.0 hrs
[18] = target: T1, von Hippel-Lindau disease tumor suppressor/Epidermal growth factor receptor; experiment: Protac activity at VHL/EGFR in human A431 cells assessed as reduction in ERK phosphorylation up to 10000 nM measured after 16 hrs by Western blot analysis; assay type: cell-based; conditions: A-431, dose nM <=10000, time 16.0 hrs
[19] = system: von Hippel-Lindau disease tumor suppressor/Epidermal growth factor receptor (Homo sapiens), P00533+P40337 [L858R,T790M]; experiment: Protac activity at VHL/EGFR L858R/T790M mutant in human NCI-H1975 cells assessed as induction of EGFR degradation at 100 nM in presence of EGFR L858R/T790M mutant ligand osimertinib by Western blot analysis; assay type: cell-based
[20] = system: von Hippel-Lindau disease tumor suppressor/Epidermal growth factor receptor (Homo sapiens), P00533+P40337 [L858R,T790M]; experiment: Protac activity at VHL/EGFR L858R/T790M mutant in human NCI-H1975 cells assessed as induction of EGFR degradation at 10 to 100 nM measured after 12 hrs in presence of proteasome inhibitor MG132 by Western blot analysis; assay type: cell-based; conditions: dose 10-100 nM
[21] = Effect on ERK level in human NCI-H1975 cells up to 10000 nM treated 8 hrs post serum starvation measured after 16 hrs by Western blot analysis; assay type: ADME, cell-based; conditions: nci-h1975, 16 h
[22] = target: T1, von Hippel-Lindau disease tumor suppressor/Epidermal growth factor receptor; experiment: Protac activity at VHL/EGFR in human A431 cells assessed as reduction in AKT phosphorylation up to 10000 nM measured after 16 hrs by Western blot analysis; assay type: cell-based; conditions: A-431, dose nM <=10000, time 16.0 hrs
[23] = target: Epidermal growth factor receptor (Homo sapiens, UniProt P00533); experiment: Inhibition of wild-type EGFR (unknown origin) using Poly (Glu, Tyr) 4:1 as substrate measured after 1 hr by ELISA
[24] = target: Epidermal growth factor receptor (Homo sapiens, UniProt P00533, L858R/T790M); experiment: Inhibition of EGFR L858R/T790M (unknown origin) using Poly (Glu, Tyr) 4:1 as substrate measured after 1 hr by ELISA
[25] = system: von Hippel-Lindau disease tumor suppressor/Epidermal growth factor receptor (Homo sapiens), P00533+P40337 [L858R,T790M]; experiment: Protac activity at VHL/EGFR L858R/T790M mutant in human NCI-H1975 cells assessed as reduction in EGFR autophosphorylation measured after 16 hrs by Western blot analysis; assay type: cell-based
[26] = system: von Hippel-Lindau disease tumor suppressor/Epidermal growth factor receptor (Homo sapiens), P00533+P40337 [L858R,T790M]; experiment: Protac activity at VHL/EGFR L858R/T790M mutant in human NCI-H1975 cells assessed as induction of EGFR degradation at 100 nM in presence of VHL ligand (S,R,S)-AHPC osimertinib by Western blot analysis; assay type: cell-based
[27] = system: von Hippel-Lindau disease tumor suppressor/Epidermal growth factor receptor (Homo sapiens), P00533+P40337 [L858R,T790M]; experiment: Protac activity at VHL/EGFR L858R/T790M mutant in human NCI-H1975 cells assessed as induction of EGFR degradation at 10 to 100 nM measured after 1 hr in presence of protein synthesis inhibitor cycloheximide by Western blot analysis; assay type: cell-based; conditions: dose 10-100 nM
[28] = system: E3 ubiquitin-protein ligase Mdm2/Epidermal growth factor receptor (Homo sapiens), Q00987+P00533 [T790M,L858M]; experiment: as §1; assay type: cell-based
[29] = system: von Hippel-Lindau disease tumor suppressor/Epidermal growth factor receptor (Homo sapiens), P00533+P40337 [L858R,T790M]; experiment: as §2; assay type: cell-based

C=CC(=O)Nc1cccc(-n2c(=O)cc(C)c3cnc(Nc4ccc(N5CCN(CCCCCCCCCCCCNC(=O)c6ccc(NC(=O)[C@@H]7N[C@@H](CC(C)(C)C)[C@](C#N)(c8ccc(Cl)cc8F)[C@H]7c7cccc(Cl)c7F)c(OC)c6)CC5)cc4OC)nc32)c1
DC50 [1]: > 2000 nM

C=CC(=O)Nc1cccc(-n2c(=O)cc(C)c3cnc(Nc4ccc(N5CCN(C(=O)CCCCCCCCCCCNC(=O)[C@H](CC(C)C)NC(=O)[C@@H](O)[C@H](N)Cc6ccccc6)CC5)cc4OC)nc32)c1
DC50 [2]: > 2000 nM

C=CC(=O)Nc1cccc(-n2c(=O)cc(C)c3cnc(Nc4ccc(N5CCN(C(=O)CCCCCCCNC(=O)c6ccc(NC(=O)[C@@H]7N[C@@H](CC(C)(C)C)[C@](C#N)(c8ccc(Cl)cc8F)[C@H]7c7cccc(Cl)c7F)c(OC)c6)CC5)cc4OC)nc32)c1
DC50 [3]: 253 nM | DC50 [1]: > 2000 nM

C=CC(=O)Nc1cccc(-n2c(=O)cc(C)c3cnc(Nc4ccc(N5CCN(CCCC(=O)N[C@H](C(=O)N6C[C@H](O)C[C@H]6C(=O)NCc6ccc(-c7scnc7C)cc6)C(C)(C)C)CC5)cc4OC)nc32)c1
DC50 [4]: > 2000 nM

C=CC(=O)Nc1cccc(-n2c(=O)cc(C)c3cnc(Nc4ccc(N5CCN(CCCCCC(=O)N[C@H](C(=O)N6C[C@H](O)C[C@H]6C(=O)NCc6ccc(-c7scnc7C)cc6)C(C)(C)C)CC5)cc4OC)nc32)c1
Activity [5]: Dose-dependent effect | DC50 [4]: > 2000 nM | Activity [6]: 63% | IC50 (NCI-H1975): 506 nM | Activity [7]: Dose-dependent effect | Activity [8]: inactive | Activity [9]: 89% | Activity [10]: Non-Toxic | Activity [11]: Dose-dependent effect | Activity [12]: inactive | Activity [13]: Active | DC50 [14]: 5.9 nM | Activity [15]: inactive | Activity [16]: inactive | Activity [17]: inactive | Activity [18]: inactive | Activity [19]: inactive | Activity [20]: inactive | Activity [21]: Non-Toxic | Activity [22]: inactive | IC50 [23]: > 1000 nM | IC50 [24]: 19.3 nM | Activity [25]: Dose-dependent effect | Activity [26]: inactive | Activity [27]: Active

C=CC(=O)Nc1cccc(-n2c(=O)cc(C)c3cnc(Nc4ccc(N5CCN(C(=O)CCCCCNC(=O)c6ccc(NC(=O)[C@@H]7N[C@@H](CC(C)(C)C)[C@](C#N)(c8ccc(Cl)cc8F)[C@H]7c7cccc(Cl)c7F)c(OC)c6)CC5)cc4OC)nc32)c1
DC50 [3]: 77 nM | DC50 [1]: > 2000 nM

C=CC(=O)Nc1cccc(-n2c(=O)cc(C)c3cnc(Nc4ccc(N5CCN(C(=O)CCCCCCCCCCCNC(=O)c6ccc(NC(=O)[C@@H]7N[C@@H](CC(C)(C)C)[C@](C#N)(c8ccc(Cl)cc8F)[C@H]7c7cccc(Cl)c7F)c(OC)c6)CC5)cc4OC)nc32)c1
Activity [28]: Dose-dependent effect | DC50 [3]: 264 nM | DC50 [1]: > 2000 nM

C=CC(=O)Nc1cccc(-n2c(=O)cc(C)c3cnc(Nc4ccc(N5CCN(C(=O)CCCCCCCCCCC(=O)N[C@H](C(=O)N6C[C@H](O)C[C@H]6C(=O)NCc6ccc(-c7scnc7C)cc6)C(C)(C)C)CC5)cc4OC)nc32)c1
DC50 [4]: > 2000 nM | Activity [29]: Dose-dependent effect

C=CC(=O)Nc1cccc(-n2c(=O)cc(C)c3cnc(Nc4ccc(N5CCN(CCCCCCCCCCCC(=O)N[C@H](C(=O)N6C[C@H](O)C[C@H]6C(=O)NCc6ccc(-c7scnc7C)cc6)C(C)(C)C)CC5)cc4OC)nc32)c1
DC50 [4]: 50.3 nM | DC50 [14]: > 2000 nM
